In one test the target is human TNF-α (Homo sapiens, UniProt P01375). Nature of the test: TNF-α functional assay (hHEK-TNF-α SEAP reporter cells). The test is classed as cell-based. Details: purchased ACROBiosystems TNA-H4211. The conditions noted are these: hHEK-TNF-α cells, SEAP readout, TNF-α added at EC80 (1.034 pM), 18-24 hours; read-out: TNF-α Function IC50. An excerpt:
Human HEK TNF-αcells (hHEK-TNF-α cells; InvivoGen Catalog #hkb-tnfdmyd; San Diego, CA, USA) are human embryonic kidney HEK293 cells that are stably transfected with the reporter gene, secreted alkaline phosphatase (SEAP). The hHEK-TNF-α cells allow for the detection of bioactive human and murine TNF-α via the activation of the NF-kB-inducible promoter and subsequent production of SEAP. Bioactivity of commercial human TNF-α protein (ActiveMax® Human TNF-α Protein, Tag Free, Low Endotoxin; available by ACROBiosystems Catalog #TNA-H4211; Newark, DE, USA) was determined in this reporter system.
Test molecules were dissolved in 100% DMSO and serially diluted by either 3-fold serial dilution or 4-fold serial dilution. […] TNF-α protein was added at the previously determined ECso. Plates containing cells, test molecules, and cytokine were incubated overnight for 18-24 hours at 37° C., 5% CO2.
The level of SEAP in the supernatant of each well was quantified using the Quanti Blue™ Solution (InvivoGen Catalog #rep-qba2; San Diego, CA, USA), a reagent with a colorimetric change in the presence of SEAP. To perform the Quanti-Blue assay: 20 L of the sample supernatant after the overnight 18-24 hour incubation was added to 180 L of Quanti Blue™ Reagent and incubated for 45 minutes at 37° C. […] Inhibition of TNF-α signaling was calculated utilizing GraphPad Prism (San Diego, CA, USA).

Test [1] deals with T1, Recombinant human ASGPR protein (Homo sapiens, UniProt P07306).
T1 construct: purchased R&D Systems 4394-AS
T1 sequence (P07306 1-291): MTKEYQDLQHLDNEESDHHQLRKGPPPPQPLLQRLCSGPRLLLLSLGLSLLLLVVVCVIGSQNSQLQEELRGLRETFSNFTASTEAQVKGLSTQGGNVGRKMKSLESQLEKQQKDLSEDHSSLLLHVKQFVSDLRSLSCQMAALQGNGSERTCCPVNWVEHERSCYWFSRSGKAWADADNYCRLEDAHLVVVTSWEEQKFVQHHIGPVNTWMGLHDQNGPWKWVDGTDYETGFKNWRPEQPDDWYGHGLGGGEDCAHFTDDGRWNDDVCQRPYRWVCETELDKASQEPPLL
Nature of the test: GalNAc-PAA human ASGPR1 competition binding assay. To be noted: competition with GalNAc-PAA-biotin 500 ng/ml. The method, then:
Protocol. Recombinant human ASGPR protein (R&D Systems Catalog #4394-AS; Minneapolis, MN, USA) was reconstituted to 200 μg/ml in Assay Buffer (20 mM HEPES (TEKnova Catalog #H1030; Hollister, CA, USA), 150 mM NaCl (Promega Catalog #V4221; Madison, WI, USA), 1 mM CaCl2 (Alfa Aesar Catalog #J63122; Tewksbury, MA, USA)). Nunc-Immuno™ MicroWell™ 96 well solid plates (Sigma Catalog #M9410; Burlington, MA, USA) were coated with 300 ng of ASGPR protein per well by diluting the protein to 3 μg/ml in Assay Buffer and adding 100 μl to each well. A few wells were left without ASGPR protein for controls in which 100 μl of Assay Buffer were added. The plate was incubated overnight at 4° C. After overnight incubation, coating solution was discarded and the wells were blocked with 150 μl/well of Blocking Buffer (1% Bovine Serum Albumin (BSA) in Assay Buffer; Sigma Catalog #A3059-100G; Burlington, MA, USA) for 2 hours at 4° C. Frozen stock of GalNAc-PAA-biotin (GlycoNZ Catalog #GNZ-0031-BP, 1 mg/ml in Assay Buffer; Auckland, NZ) was thawed and diluted 1:1000 in Assay Buffer to create a 1000 ng/ml 2× working solution. Competitor compounds were reconstituted to 100 mM in DMSO. If compounds were insoluble at this concentration, they were further diluted in DMSO. Compounds were diluted 1 to 12.5 (10 μl DMSO stock diluted to 125 μl) in Assay Buffer, then 5 fold serially diluted. The DMSO concentration in the 2× working solution of the first well is 8%, for a final starting DMSO concentration of 4%. In a separate deep-well plate (NEST Catalog #503501; Woodbridge, NJ, USA), equal amounts of 1000 ng/ml GalNAc-PAA and serially diluted compounds were combined, for a final concentration of 500 ng/ml GalNAc-PAA and 4 mM compound (top concentration), assuming that the compound concentration of the DMSO stock solution was 100 mM. Plates with Blocking Buffer were removed from refrigerator and blocking solution was discarded. The wells were washed with 200 μl of Assay Buffer three times. After the last wash, plates were tapped dry on paper towels to remove excess liquid.
Next, 100 μl of GalNAc-PAA-biotin premixed with serially diluted compounds was added into each well. For control, several wells containing 500 ng/ml GalNAc-PAA-biotin were included. Plates were incubated for 2 hours at room temperature on an orbital shaker at 100 rpm. After incubation, compound solutions were discarded and each well was washed with 200 μl Assay Buffer three times. Streptavidin-HRP (R&D Systems catalogue #DY998; Minneapolis, MN, USA) was diluted 1:200 in Assay Buffer. 100 μl of the diluted Streptavidin-HRP was added to each well and incubated at room temperature for 45 minutes, protected from light. Streptavidin-HRP was then discarded and each well was washed with 200 μl of Assay Buffer three times. 3,3′,5,5′-Tetramethylbenzidine (TMB) Substrate color reagents A and B (R&D Systems catalog #DY999; Minneapolis, MN, USA) were mixed at a ratio of 1:1 and 100 μl was added to each well. After a 5 minute incubation, 50 μl of Stop Solution (R&D Systems catalog #DY994; Minneapolis, MN, USA) was added to each well. Plates were shaken for 10 seconds using the orbital shaker in the plate reader and read at 450 nm. […] Normalized data were analyzed using a nonlinear-fit of normalized data with a four-parameter sigmoidal dose-response variable slope model.

Chain of human TNF-α (P01375 77-233 limits assumed): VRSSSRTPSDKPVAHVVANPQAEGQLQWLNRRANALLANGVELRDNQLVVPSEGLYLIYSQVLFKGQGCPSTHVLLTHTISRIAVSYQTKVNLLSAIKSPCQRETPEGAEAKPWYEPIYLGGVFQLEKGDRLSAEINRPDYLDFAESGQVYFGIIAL

In general, IC50 refers to the point on the concentration scale where inhibition reaches its midpoint. As usually defined, the Ki is a measure of affinity in units of concentration, obtained from inhibition or displacement. In the case of `CCC(=O)NC1COC(COCCOCCOCCOCCn2cc(COCC(COCc3cn(CCOCCOCCOCCOCC4OCC(NC(=O)CC)C(O)C4O)nn3)(COCc3cn(CCOCCOCCOCCOCC4OCC(NC(=O)CC)C(O)C4O)nn3)NC(=O)CNC(=O)CCOCCOCCC(=O)N3CCN(Cc4ccc(-c5c[nH]c6ccncc56)c(OCCc5ccc(-c6cccc7ccncc67)cc5)c4)CC3)nn2)C(O)C1O` (stereo not shown) [Compound 103], the concentration for half-maximal inhibition (IC50) on human TNF-α was greater than 10000 µM. In addition, the Ki in test [1] amounted to 0.2 µM.

As to `CCC(=O)NC1COC(COCCOCCOCCOCCn2cc(COCC(COCc3cn(CCOCCOCCOCCOCC4OCC(NC(=O)CC)C(O)C4O)nn3)(COCc3cn(CCOCCOCCOCCOCC4OCC(NC(=O)CC)C(O)C4O)nn3)NC(=O)CNC(=O)CCC(=O)N3CCN(Cc4ccc(-c5c[nH]c6ccncc56)c(OCCc5ccc(-c6cccc7ccncc67)cc5)c4)CC3)nn2)C(O)C1O` (stereo not shown) [Compound 104], the IC50 at human TNF-α came to 1 µM. Moreover, in test [1], the inhibition constant Ki is 0.2 µM.

Consider `CCC(=O)NC1COC(COCCOCCOCCOCCn2cc(COCCNC(=O)CNC(=O)CCOCCOCCOCCOCCOCCOCCC(=O)N3CCN(Cc4ccc(-c5c[nH]c6ccncc56)c(OCCc5ccc(-c6cccc7ccncc67)cc5)c4)CC3)nn2)C(O)C1O` (stereo not shown) [Compound 105], for which the IC50 at human TNF-α stood at 0.334 µM. Moreover, the Ki in test [1] was 0.6 µM.

Turning to `CCC(=O)N[C@H]1CO[C@H](COCCOCCOCCOCCn2cc(COCCNC(=O)CNC(=O)CCC(=O)N3CCN(Cc4ccc(-c5c[nH]c6ccncc56)c(OCCc5ccc(-c6cccc7ccncc67)cc5)c4)CC3)nn2)[C@H](O)[C@@H]1O` [Compound 106], the concentration for half-maximal inhibition (IC50) on human TNF-α is 0.356 µM. The Ki in test [1] came out at 1.1 µM.

Turning to `CCC(=O)N[C@H]1CO[C@H](COCCOCCOCCOCCn2cc(COCCNC(=O)CNC(=O)CCOCCOCCC(=O)N3CCN(Cc4ccc(-c5c[nH]c6ccncc56)c(OCCc5ccc(-c6cccc7ccncc67)cc5)c4)CC3)nn2)[C@H](O)[C@@H]1O` [Compound 107], on human TNF-α, the concentration for half-maximal inhibition (IC50) worked out at 0.319 µM. Moreover, the Ki in test [1] came to 0.8 µM.

The values are drawn from patent US20260256921A1, “BIFUNCTIONAL MOLECULES TO TARGET DEGRADATION OF TUMOR NECROSIS FACTOR” (Biohaven Therapeutics Ltd., priority 2023, published 2026).
